From US20240327393A1 (SIRONAX LTD., priority 2021, published 2024) come the findings set out here.

Like-named read-outs stand apart in the source and are kept apart here.

The assay concerns HT-1080 (ATCC, CCL-121) cells. In words: HT-1080 cell viability assay with ferroptosis inducer RSL3 (Cell Titer-Glo). Conditions: Homo sapiens, HT-1080 cells treated with RSL3, 3-fold, 10-point dilution, 1.1 μM highest concentration, read-out: EC50 (nM), ferroptosis inhibitory activity. In kind it is cell-based. The gist of the method: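 HT-1080 cells (6000 per well) were cultured overnight at 37 °C, then co-treated with RSL3 and compound in a 3-fold, 10-point series topping at 1.1 μM. Viability was read by CellTiter-Glo luminescence and normalized to untreated controls. EC50 came from a sigmoidal non-linear regression fit.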
For orientation: ATP-based viability assays read luminescence as a measure of living cells.

As to `CC1CCN(c2ccc(Nc3ccc4c(c3)CN(CC3CC3)C4=O)cc2)CC1` [Compound 184, 2-(cyclopropylmethyl)-5-((4-(4-methylpiperidin-1-yl)phenyl)amino) isoindolin-1-one], for the setting “Table 2”, the EC50 (usually the concentration needed to bring the measured effect to its halfway point) is 0.1 to 100 nM. The same measure, in the same setting: as for `CCN1CCc2cc(Nc3ccccc3)ccc2C1` [Compound 105, 2-ethyl-N-phenyl-1,2,3,4-tetrahydroisoquinolin-6-amine], the figure is 0.1 to 100 nM. For the compound `Cc1cc(N2CCC(C(F)(F)F)CC2)ccc1Nc1cc(F)c2c(c1)OCC(=O)N2` [Compound 480, 5-fluoro-7-((2-methyl-4-(4-(trifluoromethyl)piperidin-1-yl)phenyl)amino)-2H-benzo[b][1,4]oxazin-3(4H)-one], the 50% effective concentration (EC50) (Table 3) fell in the range of 0.1 to 100 nM. Still for that read-out and setting: in the case of `CCc1nc(N2C[C@@H](C)O[C@@H](C)C2)ccc1Nc1ccc2c(c1)OCC(=O)N2` [Compound 522, 7-((6-((2S,6R)-2,6-dimethylmorpholino)-2-ethylpyridin-3-yl)amino)-2H-benzo[b][1,4]oxazin-3(4H)-one] it was 0.1 to 100 nM. As for `CNCCN1C(=O)COc2cc(Nc3ccc(N4CC(C)OC(C)C4)cc3)ccc21` (centres unmarked) [Compound 53, 7-((4-(2,6-dimethylmorpholino)phenyl)amino)-4-(2-(methylamino)ethyl)-2H-benzo[b][1,4]oxazin-3(4H)-one], the EC50 (Table 2) is 0.1 to 100 nM. Still for that read-out and setting: as for `CN1C(=O)COc2cc(Nc3ccc(N4CCC(C(F)(F)F)CC4)nc3)ccc21` [Compound 17, 4-methyl-7-((6-(4-(trifluoromethyl)piperidin-1-yl)pyridin-3-yl)amino)-2H-benzo[b][1,4]oxazin-3(4H)-one], the figure is 0.1 to 100 nM; as for `CN1Cc2cc(Nc3ccc(N4CCC(C(F)(F)F)CC4)cc3)cnc2C1=O` [Compound 194, 6-methyl-3-((4-(4-(trifluoromethyl)piperidin-1-yl)phenyl)amino)-5,6-dihydro-7H-pyrrolo[3,4-b]pyridin-7-one], 0.1 to 100 nM.

Regarding `Cc1cc(N2CCC(C(F)(F)F)CC2)ccc1Nc1cc2c(cc1C)N(C)C(=O)CO2` [Compound 477, 4,6-dimethyl-7-((2-methyl-4-(4-(trifluoromethyl)piperidin-1-yl)phenyl)amino)-2H-benzo[b][1,4]oxazin-3(4H)-one], for the setting “Table 3”, the EC50 was 0.1 to 100 nM. Still for that read-out and setting: in the case of `Cc1cc(N2CCC(C(F)(F)F)CC2)ccc1Nc1ccn2ccnc2c1` [Compound 606, N-(2-methyl-4-(4-(trifluoromethyl)piperidin-1-yl)phenyl) imidazo[1,2-a]pyridin-7-amine] it was 100 to 1000 nM; in that of `Cc1cc(N2CCC(F)(F)C2)ccc1Nc1ccc2c(c1)OCC(=O)N2` [Compound 597, 7-((4-(3,3-difluoropyrrolidin-1-yl)-2-methylphenyl)amino)-2H-benzo[b][1,4]oxazin-3(4H)-one], 0.1 to 100 nM. For `Cn1c(=O)oc2cc(Nc3ccc4c(c3)n(C)c(=O)n4C)ccc21` [Compound 344, 6-((1,3-dimethyl-2-oxo-2,3-dihydro-1H-benzo[d]imidazol-5-yl)amino)-3-methylbenzo[d]oxazol-2(3H)-one], under “Table 2”, the EC50 lay in the range of 0.1 to 100 nM. On the same count and under the same terms, as for `CN1Cc2cc(Nc3ccc(N4CC5(CCC5)C4)cc3)ccc2C1=O` [Compound 244, 5-((4-(2-azaspiro[3.3]heptan-2-yl)phenyl)amino)-2-methylisoindolin-1-one], the figure is 0.1 to 100 nM. On to `CC1CN(c2ccc(Nc3ccc4c(c3)N(C)C(=O)C4(C)C)cc2)CC(C)O1` (centres unmarked) [Compound 449, 6-((4-(2,6-dimethylmorpholino)phenyl)amino)-1,3,3-trimethylindolin-2-one], for which the EC50 (Table 3) fell in the range of 0.1 to 100 nM. With `Cc1cc(C)c(Nc2ccc3c(c2)CN(C)C3=O)cn1` [Compound 236, 5-((4,6-dimethylpyridin-3-yl)amino)-2-methylisoindolin-1-one], for the setting “Table 2”, the EC50 lay in the range of 0.1 to 100 nM.

For `CN1Cc2cc(Nc3ccc(N4CCC(C(F)(F)F)C4)cc3)ccc2C1=O` (centres unmarked) [Compound 222, 2-methyl-5-((4-(3-(trifluoromethyl)pyrrolidin-1-yl)phenyl)amino) isoindolin-1-one], the EC50 (Table 2) lay in the range of 0.1 to 100 nM. For the compound `CC1CN(c2ccc(Nc3ccc4c(=O)n(C)[nH]c4c3)cc2)CC(C)O1` (centres unmarked) [Compound 432, 6-((4-(2,6-dimethylmorpholino)phenyl)amino)-2-methyl-1H-indazol-3(2H)-one], the EC50 (Table 2) is 0.1 to 100 nM. On the same count and under the same terms, as for `Cn1c(=O)oc2cc(Nc3ccc(N4CCC(CF)CC4)cc3)ccc21` [Compound 387, 6-((4-(4-(fluoromethyl)piperidin-1-yl)phenyl)amino)-3-methylbenzo[d]oxazol-2(3H)-one], the figure is 0.1 to 100 nM. Same read-out and setting: as for `Cn1c(N)nc2cc(Nc3ccc(N4CCC(C(F)(F)F)CC4)cc3)ccc21` [Compound 370, 1-methyl-N^5-(4-(4-(trifluoromethyl)piperidin-1-yl)phenyl)-1H-benzo[d]imidazole-2,5-diamine], the figure is 0.1 to 100 nM.

As to `Cc1cc(N2CCC(C(F)(F)F)CC2)ccc1Nc1ccc2oc(=O)[nH]c2c1` [Compound 467, 5-((2-methyl-4-(4-(trifluoromethyl)piperidin-1-yl)phenyl)amino) benzo[d]oxazol-2(3H)-one], the EC50 (Table 3) was in the range of 0.1 to 100 nM.

For `CN1CCN(CC(=O)N2CCc3cc(Nc4ccccc4)ccc3C2)CC1` [Compound 107, 2-(4-methylpiperazin-1-yl)-1-(6-(phenylamino)-3,4-dihydroisoquinolin-2(1H)-yl)ethan-1-one], the EC50 (Table 2) lay in the range of 0.1 to 100 nM. Turning to `Cc1cc(N2CCC(O)(C(F)(F)F)CC2)ccc1Nc1ccc2c(c1)OCC(=O)N2C` [Compound 130, 7-((4-(4-hydroxy-4-(trifluoromethyl)piperidin-1-yl)-2-methylphenyl)amino)-4-methyl-2H-benzo[b][1,4]oxazin-3(4H)-one], the EC50 (Table 2) fell in the range of 0.1 to 100 nM. The same measure, in the same setting: as for `CN1C(=O)COc2cc(Nc3ccc(N4CCCCC4)cc3)ccc21` [Compound 29], the figure is 0.1 to 100 nM. The same measure, in the same setting: as for `CC1CN(c2ccc(Nc3ccc4c(c3)oc(=O)n4CCN(C)C)cc2)CC(C)O1` (centres unmarked) [Compound 424], the figure is 0.1 to 100 nM; as for `Cc1cc(C)cc(Nc2ccc3c(c2)CN(C)C3=O)c1` [Compound 226, 5-((3,5-dimethylphenyl)amino)-2-methylisoindolin-1-one], 0.1 to 100 nM; as for `O=C1COc2cc(Nc3ccc(N4CCC(C(F)(F)F)CC4)cc3)ccc2N1CCO` [Compound 83], 0.1 to 100 nM. Still for that read-out and setting: in the case of `CN1C(=O)COc2cc(Nc3cnc(N4CCC(C(F)(F)F)CC4)nc3)ccc21` [Compound 58, 4-methyl-7-((2-(4-(trifluoromethyl)piperidin-1-yl)pyrimidin-5-yl)amino)-2H-benzo[b][1,4]oxazin-3(4H)-one] it was 0.1 to 100 nM; in that of `CC(C)(C)c1ccc(Nc2ccc3cc(CCN)c(=O)oc3c2)cc1` [Compound 124, 3-(2-aminoethyl)-7-((4-(tert-butyl)phenyl)amino)-2H-chromen-2-one], 0.1 to 100 nM. Consider `CN1Cc2cc(Nc3ccc(N4CCC(C(F)(F)F)CC4)c(F)c3)ccc2C1=O` [Compound 204, 5-((3-fluoro-4-(4-(trifluoromethyl)piperidin-1-yl)phenyl)amino)-2-methylisoindolin-1-one], for which the EC50 (Table 2) lay in the range of 0.1 to 100 nM. Regarding `Cc1nc(N2C[C@@H](C)O[C@@H](C)C2)ccc1Nc1ccc2c(c1)ncn2C` [Compound 605, N-(6-((2S,6R)-2,6-dimethylmorpholino)-2-methylpyridin-3-yl)-1-methyl-1H-benzo[d] imidazol-5-amine], the EC50 (Table 3) fell in the range of 0.1 to 100 nM. In the case of `CN(C)CCn1c(=O)n(C)c2cc(Nc3ccc(N4CCC(C(F)(F)F)CC4)cc3)ccc21` [Compound 355, 1-(2-(dimethylamino)ethyl)-3-methyl-5-((4-(4-(trifluoromethyl)piperidin-1-yl)phenyl)amino)-1,3-dihydro-2H-benzo[d]imidazol-2-one], the EC50 (Table 2) was 0.1 to 100 nM. The same measure, in the same setting: as for `CC1CN(c2ccc3cc(Nc4ccc5c(c4)OCC(=O)N5C)ccc3c2)CC(C)O1` (centres unmarked) [Compound 71, 7-((6-(2,6-dimethylmorpholino)naphthalen-2-yl)amino)-4-methyl-2H-benzo[b][1,4]oxazin-3(4H)-one], the figure is 0.1 to 100 nM. In the case of `Cc1cc(N2CC(F)C2)ccc1Nc1ccc2c(c1)OC[C@H](N)C(=O)N2` [Compound 611, (S)-3-amino-8-((4-(3-fluoroazetidin-1-yl)-2-methylphenyl)amino)-2,3-dihydrobenzo[b][1,4]oxazepin-4(5H)-one], under “Table 3”, the concentration giving a half-maximal response (EC50) was 0.1 to 100 nM. As for `Cc1cc(N2CC(C)OC(C)C2)ccc1Nc1ccc2c(c1)nc(N)n2C` (centres unmarked) [Compound 536, 5-N-[4-(2,6-dimethylmorpholin-4-yl)-2-methylphenyl]-1-methyl-1,3-benzodiazole-2,5-diamine], the EC50 (Table 3) was 0.1 to 100 nM. Still for that read-out and setting: in the case of `Cc1cc(N2CCC(C(F)(F)F)CC2)ccc1Nc1ccc2c(c1)OCC(=O)N(C)C2` [Compound 631, 4-methyl-8-((2-methyl-4-(4-(trifluoromethyl)piperidin-1-yl)phenyl)amino)-4,5-dihydrobenzo[f][1,4]oxazepin-3(2H)-one] it was 0.1 to 100 nM.

On to `CN1Cc2cc(Nc3ccc(N4CCC(C(F)(F)F)CC4)cc3)ccc2N(C)C1=O` [Compound 112, 1,3-dimethyl-6-((4-(4-(trifluoromethyl)piperidin-1-yl)phenyl)amino)-3,4-dihydroquinazolin-2(1H)-one], for which the EC50 (Table 2) was 0.1 to 100 nM. Same read-out and setting: in the case of `CN1Cc2cc(Nc3ccc(N4C[C@H]5CC[C@@H]4C5)cc3)ccc2C1=O` [Compound 245, 5-((4-((1R,4S)-2-azabicyclo[2.2.1]heptan-2-yl)phenyl)amino)-2-methylisoindolin-1-one] it was 0.1 to 100 nM.

On to `Cn1c(=O)n(C)c2cc(Nc3ccc(N4CCCC4)cc3)ccc21` [Compound 271, 1,3-dimethyl-5-((4-(pyrrolidin-1-yl)phenyl)amino)-1,3-dihydro-2H-benzo[d]imidazol-2-one], for which the EC50 (Table 2) was in the range of 0.1 to 100 nM. For the compound `CCOC(=O)c1ccc(Nc2ccc3c(c2)n(C)c(=O)n3C)cc1` [Compound 306, ethyl 4-((1,3-dimethyl-2-oxo-2,3-dihydro-1H-benzo[d]imidazol-5-yl)amino)benzoate], under “Table 2”, the half-maximal effective concentration (EC50) was in the range of 100 to 1000 nM.
